Reference: EP4603105A1, “PHARMACEUTICAL COMPOSITION CONTAINING CYCLIC COMPOUND HAVING SELECTIVE KRAS INHIBITORY EFFECT AGAINST HRAS AND NRAS” (CHUGAI SEIYAKU KABUSHIKI KAISHA, priority 2022, dated 2024)

Assays:
[1] = test system: human lung cancer strain NCI-H441; format: cell-based
Procedure: A test compound was dispensed into a U-bottom 384-well plate as 40 nL serially diluted dimethyl sulfoxide solutions using a liquid handler Echo (LABCYTE). […] This cell suspension was dispensed in an amount of 40 µL per well into a plate containing the test compound, and cultured at 37°C in a 5% carbon dioxide gas incubator. Four days later, 20 µL of CellTiter-Glo (registered trademark) (Promega) was added to each well and […] was measured. […]

[2] = molecular target: HRAS wild-type protein (Homo sapiens, UniProt P01112); test: Binding to HRAS by surface plasmon resonance (SPR), KD and KD ratio to KRAS
Sequence of HRAS wild-type protein (P01112 whole entry): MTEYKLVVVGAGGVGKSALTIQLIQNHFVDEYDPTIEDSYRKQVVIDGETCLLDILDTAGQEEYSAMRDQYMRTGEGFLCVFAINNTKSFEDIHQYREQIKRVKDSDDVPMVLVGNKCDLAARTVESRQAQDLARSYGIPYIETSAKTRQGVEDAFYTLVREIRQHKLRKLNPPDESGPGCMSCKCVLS
Procedure: (§1) Surface plasmon resonance was used to analyze the binding affinity of compounds for KRAS, NRAS, and HRAS. The apparatus used was Biacore 8K, 8K+, or T200 (GE Healthcare), and the running buffer used was HBS (10 mM HEPES-NaOH, 150 mM NaCl, pH 7.4) containing 1 mM DTT, 10 mM MgCl2, 0.01% Tween 20, 10 µM GDP, and 4% DMSO.
(§2) Biotinylated Avi-tag fusion KRAS, NRAS, and HRAS proteins were expressed in E. coli BL21 (DE3) strains, and after cells were homogenized, they were purified using Streptavidin Mutein Matrix and Superdex 75. After purification, GDP-loaded KRAS, NRAS, and HRAS proteins were immobilized on the surface of Sensor Chip CAP (Cytiva) coated with Biotin CAPture Reagent in an immobilization amount of about 100 to 300 RU. Binding of each compound was evaluated by the Single Cycle Kinetics method, and a running buffer or a compound solution was added to the RAS protein non-immobilized surface and the immobilized surface to obtain a binding response. The flow rate was set to 100 µL/min, and in the compound-adding cycle, compound solutions having different concentrations were intermittently added for 75 seconds each, starting from a low concentration. […] In the blank cycle, a running buffer was intermittently added and not the compound solution. The Biotin CAPture Reagent and RAS proteins were immobilized for each cycle, and at the end of each cycle, the sensor chip was regenerated by the regeneration solution appended to the Biotin CAPture Kit (Cytiva). Measurement was carried out at 30°C.
(§3) The resulting sensorgram was subjected to curve fitting based on a 1:1 binding model on Biacore Insight Evaluation Software or T200 Evaluation Software, and thereby the dissociation constant KD of each compound with respect to KRAS, NRAS, and HRAS was determined. […] Blank indicates a compound from which the KD value with respect to NRAS or HRAS was not obtained.

[3] = molecular target: GDP-bound NRAS wild-type protein (Homo sapiens, UniProt P01111); test: Binding to NRAS by surface plasmon resonance (SPR), KD and KD ratio to KRAS
Sequence of GDP-bound NRAS wild-type protein (P01111 whole entry): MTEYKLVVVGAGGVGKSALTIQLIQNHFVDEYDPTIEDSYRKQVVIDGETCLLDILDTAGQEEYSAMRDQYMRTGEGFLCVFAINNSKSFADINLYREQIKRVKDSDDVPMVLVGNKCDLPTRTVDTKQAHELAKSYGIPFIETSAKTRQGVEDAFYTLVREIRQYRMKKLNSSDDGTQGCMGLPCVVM
Procedure: as §1, §2, §3

[4] = ratio of the KD value with respect to HRAS wild-type protein to the KD value with respect to KRAS
[5] = ratio of the KD value with respect to GDP-bound NRAS wild-type protein to the KD value with respect to KRAS
[6] = ratio of KD for HRAS wild-type protein to KD for KRAS
[7] = ratio of KD for GDP-bound NRAS wild-type protein to KD for KRAS

Row | SMILES | IC50 [1] [nM] | HRAS /KRAS [2, 4] | NRAS /KRAS [3, 5] | HRAS /KRAS [2, 6] | NRAS /KRAS [3, 7]
1 | CC[C@H](C)[C@@H]1NC(=O)[C@H](CC(C)C)N(C)C(=O)C[C@@H](C(=O)N(C)C)N(C)C(=O)[C@H](C2CCCC2)N(C)C(=O)C2(CCCC2)NC(=O)[C@@H]2C[C@H](C)CN2C(=O)[C@H](CCc2cc(F)c(C(F)(F)F)c(F)c2)NC(=O)CN(C)C(=O)[C@H](Cc2ccc(C(F)(F)F)cc2)N2CC/C=C\C[C@@H](C2=O)N(C)C(=O)CN(C)C1=O [PP2268] | 9.8 | A (a compound having 10 or more and less than 20 is denoted as A) | A (a compound having 10 or more and less than 20 is denoted as A) |  | 
2 | CCO[C@@H]1C[C@H]2C(=O)NC3(CC(C)(C)C3)C(=O)N(C)[C@@H](C3CCCC3)C(=O)N(C)[C@H](C(=O)N3CCCC3)CC(=O)N(C)[C@H]3CCCCCCc4ccc(cc4)C[C@@H](C(=O)N(C)CC(=O)N[C@@H](CCc4ccc(C(F)(F)F)c(OC)c4)C(=O)N2C1)N1CC/C=C\C[C@@H](C1=O)N(C)C(=O)CN(C)C(=O)[C@H]([C@@H](C)CC)NC3=O [PP3034] | 5.3 |  |  | B (a compound having 3 or more and less than 10 is denoted as B) | A (a compound having 10 or more and less than 20 is denoted as A)
3 | CCCN(C)C(=O)[C@@H]1CC(=O)N(C)[C@@H](CC)C(=O)N[C@@H]([C@@H](C)CC)C(=O)N(C)CC(=O)N(C)[C@H]2C/C=C\CCN(C2=O)[C@@H](Cc2ccc(C(F)(F)F)cc2)C(=O)N(C)CC(=O)N[C@@H](CCc2cc(F)c(C(F)(F)F)c(F)c2)C(=O)N2C[C@H](OCC3CC3)C[C@H]2C(=O)NC2(CCC2)C(=O)N(C)[C@@H](C2CCCC2)C(=O)N1C [PP2913] | 10.3 |  |  | A (a compound having 10 or more and less than 20 is denoted as A) | A (a compound having 10 or more and less than 20 is denoted as A)
4 | CCC[C@H]1C(=O)N[C@@H]([C@@H](C)CC)C(=O)N(C)CC(=O)N(C)[C@H]2C/C=C\CCN(C2=O)[C@@H](CC2CCC(F)(F)CC2)C(=O)N(C)CC(=O)N[C@@H](CCc2ccc(C(F)(F)F)c(OC)c2)C(=O)N2C[C@H](OCC)C[C@H]2C(=O)N(C)C2(CCC2)C(=O)N(C)[C@@H](C2CCCC2)C(=O)N(C)[C@H](C(=O)N(C)C)CC(=O)N1C [PP2348] | 52.7 | A (a compound having 10 or more and less than 20 is denoted as A) | A (a compound having 10 or more and less than 20 is denoted as A) |  | 
5 | CCCN(C)C(=O)[C@@H]1CC(=O)N(C)[C@@H](C2CCC2)C(=O)N[C@@H]([C@@H](C)CC)C(=O)N(C)CC(=O)N(C)[C@H]2C/C=C\CCN(C2=O)[C@@H](Cc2ccc(C(F)(F)F)cc2)C(=O)N(C)CC(=O)N[C@@H](CCc2ccc(C(F)(F)F)c(OC)c2)C(=O)N2C[C@@H](C)C[C@H]2C(=O)NC2(CCC2)C(=O)N(C)[C@@H](C2CCCC2)C(=O)N1C [PP2072] | 8.5 | A (a compound having 10 or more and less than 20 is denoted as A) | A (a compound having 10 or more and less than 20 is denoted as A) |  | 
6 | CCO[C@@H]1C[C@H]2C(=O)NC3(CCC3)C(=O)N(C)[C@@H](C3CCCC3)C(=O)N(C)[C@H](C(=O)N(C)CC)CC(=O)N(C)[C@@H](CC(C)C)C(=O)N[C@@H]([C@@H](C)CC)C(=O)N(C)CC(=O)N(C)[C@H]3C/C=C\CCN(C3=O)[C@@H](Cc3ccc(C(F)(F)F)cc3)C(=O)N(C)CC(=O)N[C@@H](CCc3ccc(C(F)(F)F)c(OC)c3)C(=O)N2C1 [PP2846] | 5.1 |  |  | A (a compound having 10 or more and less than 20 is denoted as A) | AA (a compound having 20 or more is denoted as AA)
